{"source": "patent US6322771A", "about": "“Induction of pharmacological stress with adenosine receptor agonists” (priority 1999, dated 2001)", "key": {"A1 adenosine receptors": {"test_system": "A1 adenosine receptors", "details": "A1 versus A2A adenosine receptors; cited from earlier work"}, "[1]": {"test_system": "dog with critical LAD stenosis", "experimental": "Following a 15 minute baseline stabilization period, the LAD snare occluder was tightened to produce a critical LAD stenosis. A critical stenosis was defined as one that produced no change in resting coronary flow, however coronary flow reserve was completely abolished. […] Five minutes later, an in vivo image was acquired and the animal was then immediately killed to prevent ^99m Tc-N-NOET redistribution. The heart was removed and sliced into 4 rings from apex to base. The heart slices were placed on a cardboard sheet, covered with plastic wrap, and ex vivo imaging of the heart slices was performed directly on the collimator of a conventional planar gamma camera. Image background subtraction was performed on the in vivo image using standard nuclear medicine software developed for this purpose. Defect magnitude was expressed as an LAD/LCX count ratio between counts in LAD and LCX regions of interest drawn on the in vivo and ex vivo heart images."}, "adult mongrel dogs": {"test_system": "adult mongrel dogs", "details": "for LCX coronary flow: baseline 42 ml/min"}, "patients [2]": {"test_system": "patients", "details": "9,256 patients; cited from earlier work"}, "patients [3]": {"test_system": "patients", "details": "3,911 patients; cited from earlier work"}, "patients [4]": {"test_system": "patients", "details": "3,715 patients; cited from earlier work"}}, "note": "Where two headings read alike, the source gives them in different places."}
{"smiles": "Nc1nc(Cl)nc2c1ncn2[C@@H]1O[C@H](CO)[C@@H](O)[C@H]1O", "note": "[Cl-Ado, 2-chloroadenosine]", "values": [{"measurement": "receptor subtype preference as activator", "setting": "A1 adenosine receptors", "value": "more potent activator of A1 adenosine receptors than of A2A adenosine receptors"}]}
{"smiles": "CCNC(=O)[C@H]1O[C@@H](n2cnc3c(N)nc(C#CC[C@H]4CC[C@H](C(=O)OC)CC4)nc32)[C@H](O)[C@@H]1O", "note": "[DWH-146e]", "values": [{"measurement": "increase of coronary flow in the normal LCX coronary artery", "setting": "[1]; 0.3 μg/kg/min i.v. infusion", "value": "~5", "unit": "fold"}, {"measurement": "in vivo and ex vivo 99mTc-N-NOET images", "setting": "[1]; critical LAD stenosis", "value": "readily detectable large anteroseptal perfusion defects"}, {"measurement": "change in mean arterial pressure", "setting": "[1]; dog, in vivo", "value": "no change"}, {"measurement": "Heart Rate", "setting": "[1]; peak, 0.3 μg/kg/min i.v. infusion, baseline 109, stenosis 123", "value": 143, "unit": "BPM"}, {"measurement": "dP/dt", "setting": "[1]; peak, 0.3 μg/kg/min i.v. infusion, baseline 2906, stenosis 2713", "value": 2606, "unit": "mm Hg · sec-1"}, {"measurement": "LCX coronary flow", "setting": "[1]; peak, 0.3 μg/kg/min i.v. infusion, normal artery, baseline 39, stenosis 38", "value": 185, "unit": "mL/min"}, {"measurement": "LAD Coronary Flow", "setting": "[1]; peak, 0.3 μg/kg/min i.v. infusion, stenosed artery, baseline 39, stenosis 37", "value": 42, "unit": "mL/min"}]}
{"smiles": "CCNC(=O)[C@H]1O[C@@H](n2cnc3c(N)nc(C#CCC4CCC(COC(C)=O)CC4)nc32)[C@H](O)[C@@H]1O", "note": "(stereo partly drawn) [JMR-193e, [4-(3-{9[(4S,5S,2R,3R)-5-(N-ethylcarbamoyl)-3,4-dihydroxyoxolan-2-yl]-6-aminopurin-2-yl}prop-2-ynyl)cyclohexyl]methyl acetate]", "values": [{"measurement": "LCX coronary flow", "setting": "adult mongrel dogs; 0.05 μg/kg/min x 10 min i.v. infusion", "value": 66, "unit": "mL/min"}, {"measurement": "LCX coronary flow", "setting": "adult mongrel dogs; 0.1 μg/kg/min x 10 min i.v. infusion", "value": 75, "unit": "mL/min"}, {"measurement": "LCX coronary flow", "setting": "adult mongrel dogs; 0.2 μg/kg/min x 10 min i.v. infusion", "value": 124, "unit": "mL/min"}, {"measurement": "LCX coronary flow", "setting": "adult mongrel dogs; 0.3 μg/kg/min x 10 min i.v. infusion", "value": 153, "unit": "mL/min"}, {"measurement": "LCX coronary flow", "setting": "adult mongrel dogs; 0.4 μg/kg/min x 10 min i.v. infusion", "value": 140, "unit": "mL/min"}, {"measurement": "time flow remained elevated more than 2x normal", "setting": "adult mongrel dogs; bolus 0.3 μg/kg", "value": "3 to 4", "unit": "min"}, {"measurement": "time of maximal LCX flow post-injection", "setting": "adult mongrel dogs; bolus 0.3 μg/kg", "value": 2.3, "unit": "min"}, {"measurement": "LCX flow", "setting": "adult mongrel dogs; bolus 0.3 μg/kg, from 41 ml/min", "value": 140, "unit": "mL/min"}, {"measurement": "pharmacodynamic t1/2", "setting": "adult mongrel dogs; return of hemodynamics to baseline after terminating the infusion", "value": "12 ± 2", "unit": "min"}]}
{"smiles": "Nc1ncnc2c1ncn2[C@@H]1O[C@H](CO)[C@@H](O)[C@H]1O", "note": "[adenosine]", "values": [{"measurement": "LCX flow", "setting": "adult mongrel dogs; i.v. 250 μg/kg/min x 3 min", "value": 139, "unit": "mL/min"}, {"measurement": "arterial pressure", "setting": "adult mongrel dogs; i.v. 250 μg/kg/min x 3 min, from 109 mm Hg", "value": 80, "unit": "mm Hg"}, {"measurement": "A-V conduction block", "setting": "patients [2]", "value": 8, "unit": "%"}, {"measurement": "ECG changes", "setting": "patients [2]", "value": 9, "unit": "%"}, {"measurement": "chest pain", "setting": "patients [2]", "value": 35, "unit": "%"}, {"measurement": "flushing", "setting": "patients [2]", "value": 37, "unit": "%"}, {"measurement": "headache", "setting": "patients [2]", "value": 14, "unit": "%"}, {"measurement": "patients with adverse side effects", "setting": "patients [2]", "value": 82, "unit": "%"}, {"measurement": "shortness of breath or dyspnea", "setting": "patients [2]", "value": 35, "unit": "%"}]}
{"smiles": "OCCN(CCO)c1nc(N2CCCCC2)c2nc(N(CCO)CCO)nc(N3CCCCC3)c2n1", "note": "[dipyridamole]", "values": [{"measurement": "ST-segment changes on ECG", "setting": "patients [3]", "value": 8, "unit": "%"}, {"measurement": "headaches", "setting": "patients [3]", "value": 12, "unit": "%"}, {"measurement": "fall of mean systolic blood pressure", "setting": "patients [4]", "value": 14, "unit": "mm Hg"}, {"measurement": "patients with a >20% drop in systolic blood pressure", "setting": "patients [4]", "value": 11, "unit": "%"}]}
